The target in assay [1] is T1, adrenergic, beta-2 (human) (Homo sapiens, UniProt P07550).
T1 construct: endogenous in cells; host or cells: HL-60 (human promyelocytic leukemia cells)
Description: adrenergic, beta-2 (human) binding assay; HL-60 cells, isoproterenol, EIA read-out. It is filed as cell-based. The settings on record: 100 nM isoproterenol, 20 minutes at room temperature. On the procedure:
With respect to beta-2 adrenergic activity, for example, human promyelocytic leukemia cells (HL-60 cells) can be washed and added to physiological buffer. […] Thereafter, 100 nM (final) isoproterenol is added. After twenty minutes at room temperature, cells are centrifuged, buffer removed, and 0.1M HCl is added to stop reaction. […] Pharmacol. 27(1):33-54.
Briefly, human promyelocytic leukemia cells (HL-60 cells) were washed and physiological buffer was added before analysis. To this was added 300 μM IBMX to inhibit phosphodiesterase. […] Cells were then centrifuged, buffer removed and 0.1 M HCL was added to stop the reaction.

Assay [2] addresses T2, adrenergic, beta-1 (human) (Homo sapiens, UniProt P08588).
T2 construct: expressed in transfected cells; host or cells: Sf9 insect cells (membranes)
Description: adrenergic, beta-1 (human) binding assay; human recombinant Sf9 cells, membranes, Europium time-resolved fluorescence. Type of assay: biochemical. The note with it: Table 2, 30 nM isoproterenol. On the procedure: The compound of interest is added to the membrane and then incubated for ten minutes. Thereafter, 100 nM GTP-Eu is added and incubated for an additional thirty minutes. Europium fluorescence is measured in a time-resolved fluorometer in order to ascertain any functional antagonist activity at the adrenergic beta 1 site. […] Briefly, Human recombinant Sf9 cells were used, wherein reactions were carried out in 50 mM HEPES [pH 7.4] containing 3 mM MgCl2, 0.1 μM GDP, 10 μm/mL Saoonin, and 1 mM DTT (dithiothreitol). The compound of interest was added to the membrane and then incubated for ten minutes at room temperature. Then, 30 nM of isoproterenol [final] to each well was added and allowed to incubate for an additional 30 minutes. Europium fluorescence was measured in a time-resolved fluorometer in order to ascertain any functional antagonist activity at the adrenergic beta-1 site. […] Briefly, Human recombinant Sf9 cells were used, wherein reactions were carried out in 50 mM HEPES [pH 7.4] containing 3 mM MgCl2, 0.1 μM GDP, 10 μm/mL Saoonin, and 1 mM DTT (dithiothreitol). The compound of interest was added to the membrane and then incubated for ten minutes at room temperature. Then, 30 nM of isoproterenol [final] to each well was added and allowed to incubate for an additional 30 minutes. Europium fluorescence was measured in a time-resolved fluorometer in order to ascertain any functional antagonist activity at the adrenergic beta-1 site.

SMILES strings stand for the structures. pIC50: −log10 of the molar value.

T2 sequence (P08588 whole entry): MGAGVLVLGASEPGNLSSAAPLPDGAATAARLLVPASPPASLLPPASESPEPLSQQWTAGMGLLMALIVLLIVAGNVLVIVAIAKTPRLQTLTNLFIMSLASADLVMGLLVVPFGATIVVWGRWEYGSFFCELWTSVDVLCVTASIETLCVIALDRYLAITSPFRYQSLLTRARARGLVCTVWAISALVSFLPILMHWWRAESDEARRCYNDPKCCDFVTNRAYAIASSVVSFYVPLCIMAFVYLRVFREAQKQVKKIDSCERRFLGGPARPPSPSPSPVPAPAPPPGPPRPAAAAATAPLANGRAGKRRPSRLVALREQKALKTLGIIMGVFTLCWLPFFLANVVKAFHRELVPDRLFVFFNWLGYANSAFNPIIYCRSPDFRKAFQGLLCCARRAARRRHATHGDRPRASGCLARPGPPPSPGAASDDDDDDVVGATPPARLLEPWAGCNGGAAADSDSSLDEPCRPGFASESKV
T1 sequence (P07550 whole entry): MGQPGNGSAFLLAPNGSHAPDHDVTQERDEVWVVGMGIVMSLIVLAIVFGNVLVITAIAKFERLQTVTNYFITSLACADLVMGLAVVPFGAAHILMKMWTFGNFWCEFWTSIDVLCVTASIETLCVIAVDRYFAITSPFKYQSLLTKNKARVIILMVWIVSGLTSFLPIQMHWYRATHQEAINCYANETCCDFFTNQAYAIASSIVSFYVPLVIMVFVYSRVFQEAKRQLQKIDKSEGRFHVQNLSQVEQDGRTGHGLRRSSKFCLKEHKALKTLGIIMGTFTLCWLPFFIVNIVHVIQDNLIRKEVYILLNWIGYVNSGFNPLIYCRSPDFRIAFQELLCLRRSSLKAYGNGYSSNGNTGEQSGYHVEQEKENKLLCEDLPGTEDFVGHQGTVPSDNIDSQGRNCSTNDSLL

Take `COCCOCCOCCOCCOCCOCCOCCOC(CNC(C)(C)C)COc1nsnc1N1CCOCC1` (stereo not shown) [Timolol Compound C]: the pIC50 in assay [1] (Table 3, 300 μM IBMX) was 6.22.

Consider `COCCOCCOCCOCC(=O)O[C@H](COc1cccc2ccccc12)CN(C(=O)COCCOCCOCCOC)C(C)C` [Propranolol Conjugate B], for which the pIC50 in assay [2] was 5.42; in assay [1] (Table 1, 300 μM IBMX) it was 4.88.

Take `COCCOCCOCCOCCOCCOCCOCCO[C@@H](CNC(C)C)COc1cccc2ccccc12` [Propranolol Conjugate D]: the negative logarithm of the IC50 (pIC50) in assay [1] (Table 1, 300 μM IBMX) is 6.42.

As for `COCCOCCOCCOCC(=O)O[C@@H](CNC(C)C)COc1cccc2ccccc12` [Propranolol Conjugate F], the pIC50 in assay [2] was 5.27; in assay [1] (Table 1, 300 μM IBMX) it was 5.78.

As for `COCCOCCOCCOCCOCCOCCOCCOCCOC(CNC(C)(C)C)COc1nsnc1N1CCOCC1` (stereo not shown) [Timolol Compound D], in assay [1] (Table 3, 300 μM IBMX), the negative logarithm of the IC50 (pIC50) is 6.20.

Consider `COCCOCCOCCO[C@@H](CNC(C)C)COc1cccc2ccccc12` [Propranolol Conjugate A], for which the negative-log IC50 (pIC50) in assay [2] was 5.75; in assay [1] (Table 1, 300 μM IBMX), 6.95.

Consider `COCCOCCOCCOCCOCCO[C@@H](CNC(C)C)COc1cccc2ccccc12` [Propranolol Conjugate C], for which the pIC50 in assay [2] is 5.30; in assay [1] (Table 1, 300 μM IBMX) it was 6.47.

As for `COCCOCCOCCOCCOCCOC(CNC(C)(C)C)COc1nsnc1N1CCOCC1` (stereo not shown) [Timolol Compound B], the pIC50 in assay [1] (Table 3, 300 μM IBMX) is 5.89.

`COCCOCCOCCOCCOCCOCCOCCOCC(=O)O[C@@H](CNC(C)C)COc1cccc2ccccc12` [Propranolol Conjugate E]: the pIC50 in assay [1] (Table 1, 300 μM IBMX) was 5.77.

In general, pIC50 refers to −log10 of the IC50, conventionally taken in molar units.

(Values after US10251959B2, “Oligomer-beta blocker conjugates” (Nektar Therapeutics, priority 2007, dated 2019).)
